According to patent US4024224A, “14-Aminodaunomycins, their preparation and use” (priority 1974, dated 1977):
In brackets after ≈: the same amount, converted by molar mass. Read-outs that look alike come from different tables or passages of the source.

Tests used:
[1] = system: Moloney Sarcoma Virus (MSV); experiment: Inhibition of MSV-M foci formation in mouse embryo fibroblasts; format: cell-based; details: Fibroblast, 120 h, 3 days treatment
[2] = Proliferation of uninfected mouse embryo fibroblasts (MEF); format: cell-based; details: mouse, mouse embryo fibroblasts; calculated on dose-effects lines; uninfected MEF, 3 days treatment; read-out: MEF proliferation ID 50 (Inhibiting Dose 50%)
[3] = system: Mouse Embryo Fibroblasts; experiment: as above; format: cell-based; details: Mus musculus, Fibroblast, 72 h, uninfected MEF, 3 days treatment, read-out: MEF No. of cells
[4] = Antitumor activity and toxicity on ascites Sarcoma 180 in CD 1 mice; format: in vivo; details: mouse, in vivo, ip, read-out: % Toxic Deaths
In short: (§1)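 CD 1 mice (3 months old) given 10^6 Sarcoma 180 ascites cells i.p.; compounds in water or 5% ethanol, diluted in Ringer's, dosed i.p. 1 day post-implant. Efficacy taken as maximum increase in median survival time versus untreated controls over the dose range; toxicity by autopsy (spleen size reduction); long-term survivors tumor-free at 60 days.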

[5] = system: ascites Sarcoma 180; experiment: as above; format: in vivo; details: for % LTS: 60 days; for LTS (Long Term Survivors after 60 days): survivors/total; for Toxic Deaths: deaths/total
In short: as §1

[6] = system: Solid Sarcoma 180; experiment: Antitumor activity and toxicity on solid Sarcoma 180 in CD 1 mice; format: in vivo; details: for Tumor Volume T/C %: 11th day; for Toxic Deaths: deaths/total
Protocol: The toxicity of the test compounds was evaluated by macroscopic autoptic examination mainly in terms of reduction in spleen size. The comparison of the effectiveness of the test compounds is based on the maximum increase in median survival time, as compared to untreated controls, over the dose range used. The number of Long Term Survivors (LTS) refers to tumor-free mice at the end of the experiment (60 days). Solid Sarcoma 180 was implanted subcutaneously by trocar in the flank of CD 1 mice according to standard methods. The mice were treated i.v. for 5 consecutive days, starting 1 day after the tumor implant. On the 11th day the tumor volume was measured by means of a caliper and evaluated according to the formula (a^2 × b)/2, a and b being the minimum and the maximum diameters respectively.

[7] = 0.2 mg./kg. i.p. 1 day after tumor implant
[8] = 1 mg./kg. i.p. 1 day after tumor implant
[9] = 5 mg./kg. i.p. 1 day after tumor implant
[10] = 12.5 mg./kg. i.p. 1 day after tumor implant
[11] = 25 mg./kg. i.p. 1 day after tumor implant
[12] = 50 mg./kg. i.p. 1 day after tumor implant
[13] = 75 mg./kg. i.p. 1 day after tumor implant
[14] = 100 mg./kg. i.p. 1 day after tumor implant
[15] = 200 mg./kg. i.p. 1 day after tumor implant
[16] = 12.5 mg./kg. i.v. for 5 consecutive days
[17] = 25 mg./kg. i.v. for 5 consecutive days
[18] = 50 mg./kg. i.v. for 5 consecutive days

COc1cccc2c1C(=O)c1c(O)c3c(c(O)c1C2=O)C[C@@](O)(C(=O)CN(CCO)CCO)C[C@@H]3O[C@H]1C[C@H](N)[C@H](O)[C@H](C)O1 [14-diethanolaminodaunomycin]
IC50 ([1]; calculated on dose-effects lines, read-out: MSV-M foci ID 50 (Inhibiting Dose 50%)): 0.052 µg/mL (≈ 0.0825 µM) | activity at 0.0062 µg/mL ([1]; dose 0.0062 μg/ml, foci counted 5 days after infection, read-out: MSV-M No. of foci): 75% | activity at 0.025 µg/mL ([1]; dose 0.0250 μg/ml, foci counted 5 days after infection, read-out: MSV-M No. of foci): 73% | activity at 0.1 µg/mL ([1]; dose 0.1 μg/ml, foci counted 5 days after infection, read-out: MSV-M No. of foci): 21% | activity at 0.4 µg/mL ([1]; dose 0.4 μg/ml, foci counted 5 days after infection, read-out: MSV-M No. of foci): 0% | IC50 at 72 h [2]: 0.13 µg/mL (≈ 0.206 µM) | activity at 0.0062 µg/mL ([3]; dose 0.0062 μg/ml): 100% | activity at 0.025 µg/mL ([3]; dose 0.0250 μg/ml): 95% | activity at 0.1 µg/mL ([3]; dose 0.1 μg/ml): 56% | activity at 0.4 µg/mL ([3]; dose 0.4 μg/ml): 25% | mortality ([4]; 0.2 mg./kg. i.p.): 0% | mortality ([4]; 1 mg./kg. i.p.): 0% | mortality ([4]; 5 mg./kg. i.p.): 0% | mortality ([4]; 12.5 mg./kg. i.p.): 0% | mortality ([4]; 25 mg./kg. i.p.): 0% | mortality ([4]; 50 mg./kg. i.p.): 0% | mortality ([4]; 75 mg./kg. i.p.): 10% | mortality ([4]; 100 mg./kg. i.p.): 42% | mortality ([4]; 200 mg./kg. i.p.): 100% | T/C (median survival time, % over untreated controls) [5, 7]: 106% | % LTS [5, 7]: 0% | LTS (Long Term Survivors after 60 days) [5, 7]: 0/10 | Toxic Deaths ([5]; 0.2 mg./kg. i.p.): 0/10 | T/C (median survival time, % over untreated controls) [5, 8]: 103% | % LTS [5, 8]: 0% | LTS (Long Term Survivors after 60 days) [5, 8]: 0/10 | Toxic Deaths ([5]; 1 mg./kg. i.p.): 0/10 | T/C (median survival time, % over untreated controls) [5, 9]: 124% | % LTS [5, 9]: 0% | LTS (Long Term Survivors after 60 days) [5, 9]: 0/10 | Toxic Deaths ([5]; 5 mg./kg. i.p.): 0/10 | T/C (median survival time, % over untreated controls) [5, 10]: 181% | % LTS [5, 10]: 0% | LTS (Long Term Survivors after 60 days) [5, 10]: 0/10 | Toxic Deaths ([5]; 12.5 mg./kg. i.p.): 0/10 | T/C (median survival time, % over untreated controls) [5, 11]: 187% | % LTS [5, 11]: 20% | LTS (Long Term Survivors after 60 days) [5, 11]: 4/20 | Toxic Deaths ([5]; 25 mg./kg. i.p.): 0/20 | T/C (median survival time, % over untreated controls) [5, 12]: 175% | % LTS [5, 12]: 23% | LTS (Long Term Survivors after 60 days) [5, 12]: 4/17 | Toxic Deaths ([5]; 50 mg./kg. i.p.): 0/17 | T/C (median survival time, % over untreated controls) [5, 13]: 170% | % LTS [5, 13]: 0% | LTS (Long Term Survivors after 60 days) [5, 13]: 0/10 | Toxic Deaths ([5]; 75 mg./kg. i.p.): 1/10 | T/C (median survival time, % over untreated controls) [5, 14]: 83% | % LTS [5, 14]: 0% | LTS (Long Term Survivors after 60 days) [5, 14]: 0/7 | Toxic Deaths ([5]; 100 mg./kg. i.p.): 3/7 | T/C (median survival time, % over untreated controls) [5, 15]: 25% | % LTS [5, 15]: 0% | LTS (Long Term Survivors after 60 days) [5, 15]: 0/7 | Toxic Deaths ([5]; 200 mg./kg. i.p.): 7/7 | Tumor Volume T/C % [6, 16]: 82% | Toxic Deaths [6, 16]: 1/5 | Tumor Volume T/C % [6, 17]: 66% | Toxic Deaths [6, 17]: 1/5 | Tumor Volume T/C % [6, 18]: 44% | Toxic Deaths [6, 18]: 0/5 | inhibition of tumor growth on solid Sarcoma 180 ([6]; at non-toxic doses): marked inhibition of tumor growth, at non-toxic doses
